Data taken from ChEMBL document CHEMBL1782000, “Thiazole-based chalcones as potent antimicrobial agents. Synthesis and biological evaluation” (2011).
≈ marks a conversion by molar mass, not a printed value.

Tests used:
Staphylococcus aureus [1] = experiment: Antibacterial activity against Staphylococcus aureus ATCC 6538 after 24 hrs by microdilution method; assay type: functional; conditions: ATCC 6538, 24 h
Bacillus cereus [2] = experiment: Antibacterial activity against Bacillus cereus clinical isolate after 24 hrs by microdilution method; assay type: functional
Micrococcus flavus [3] = experiment: Antibacterial activity against Micrococcus flavus ATCC 10240 after 24 hrs by microdilution method; assay type: functional; conditions: ATCC 10240, 24 h
Listeria monocytogenes [4] = experiment: Antibacterial activity against Listeria monocytogenes NCTC 7973 after 24 hrs by microdilution method; assay type: functional; conditions: NCTC 7973, 24 h
Pseudomonas aeruginosa [5] = experiment: Antibacterial activity against Pseudomonas aeruginosa ATCC 27853 after 24 hrs by microdilution method; assay type: functional; conditions: ATCC 27853, 24 h
Salmonella typhimurium [6] = experiment: Antibacterial activity against Salmonella Typhimurium ATCC 13311 after 24 hrs by microdilution method; assay type: functional, Salmonella enterica subsp. enterica serovar Typhimurium; conditions: Salmonella enterica, ATCC 13311, 24 h
Escherichia coli [7] = experiment: Antibacterial activity against Escherichia coli ATCC 35210 after 24 hrs by microdilution method; assay type: functional; conditions: ATCC 35210, 24 h
Enterococcus faecalis [8] = experiment: Antibacterial activity against Enterococcus faecalis isolate obtained from human after 24 hrs by microdilution method; assay type: functional
Staphylococcus aureus [9] = experiment: Bactericidal activity against Staphylococcus aureus ATCC 6538 after 24 hrs; assay type: functional; conditions: ATCC 6538, 24 h
Bacillus cereus [10] = experiment: Bactericidal activity against Bacillus cereus clinical isolate after 24 hrs; assay type: functional
Micrococcus flavus [11] = experiment: Bactericidal activity against Micrococcus flavus ATCC 10240 after 24 hrs; assay type: functional; conditions: ATCC 10240, 24 h
Listeria monocytogenes [12] = experiment: Bactericidal activity against Listeria monocytogenes NCTC 7973 after 24 hrs; assay type: functional; conditions: NCTC 7973, 24 h
Pseudomonas aeruginosa [13] = experiment: Bactericidal activity against Pseudomonas aeruginosa ATCC 27853 after 24 hrs; assay type: functional; conditions: ATCC 27853, 24 h
Salmonella typhimurium [14] = experiment: Bactericidal activity against Salmonella Typhimurium ATCC 13311 after 24 hrs; assay type: functional, Salmonella enterica subsp. enterica serovar Typhimurium; conditions: Salmonella enterica, ATCC 13311, 24 h
Escherichia coli [15] = experiment: Bactericidal activity against Escherichia coli ATCC 35210 after 24 hrs; assay type: functional; conditions: ATCC 35210, 24 h
Enterococcus faecalis [16] = experiment: Bactericidal activity against Enterococcus faecalis isolate obtained from human after 24 hrs; assay type: functional
Aspergillus ochraceus [17] = experiment: Antifungal activity against Aspergillus ochraceus ATCC 12066 after 72 hrs by serial dilution method; assay type: functional; conditions: ATCC 12066, 72 h
Aspergillus versicolor [18] = experiment: Antifungal activity against Aspergillus versicolor ATCC 11730 after 72 hrs by serial dilution method; assay type: functional; conditions: ATCC 11730, 72 h
Aspergillus niger [19] = experiment: Antifungal activity against Aspergillus niger ATCC 6275 after 72 hrs by serial dilution method; assay type: functional; conditions: ATCC 6275, 72 h
Aspergillus fumigatus [20] = experiment: Antifungal activity against Aspergillus fumigatus plant isolate after 72 hrs by serial dilution method; assay type: functional
Trichoderma viride [21] = experiment: Antifungal activity against Trichoderma viride IAM 5061 after 72 hrs by serial dilution method; assay type: functional; conditions: IAM 5061, 72 h
Penicillium ochrochloron [22] = experiment: Antifungal activity against Penicillium ochrochloron ATCC 9112 after 72 hrs by serial dilution method; assay type: functional; conditions: ATCC 9112, 72 h
Talaromyces funiculosus [23] = experiment: Antifungal activity against Penicillium funiculosum ATCC 36839 after 72 hrs by serial dilution method; assay type: functional; conditions: ATCC 36839, 72 h
[24] = Antifungal activity against Fusarium sporotrichioides IMT 496 after 72 hrs by serial dilution method; assay type: functional
Aspergillus ochraceus [25] = experiment: Fungicidal activity against Aspergillus ochraceus ATCC 12066 after 72 hrs; assay type: functional; conditions: ATCC 12066, 72 h
Aspergillus versicolor [26] = experiment: Fungicidal activity against Aspergillus versicolor ATCC 11730 after 72 hrs; assay type: functional; conditions: ATCC 11730, 72 h
Aspergillus niger [27] = experiment: Fungicidal activity against Aspergillus niger ATCC 6275 after 72 hrs; assay type: functional; conditions: ATCC 6275, 72 h
Aspergillus fumigatus [28] = experiment: Fungicidal activity against Aspergillus fumigatus plant isolate after 72 hrs; assay type: functional
Trichoderma viride [29] = experiment: Fungicidal activity against Trichoderma viride IAM 5061 after 72 hrs; assay type: functional; conditions: IAM 5061, 72 h
Penicillium ochrochloron [30] = experiment: Fungicidal activity against Penicillium ochrochloron ATCC 9112 after 72 hrs; assay type: functional; conditions: ATCC 9112, 72 h
Talaromyces funiculosus [31] = experiment: Fungicidal activity against Penicillium funiculosum ATCC 36839 after 72 hrs; assay type: functional; conditions: ATCC 36839, 72 h
[32] = tested on: Fusarium sporotrichioides; experiment: Fungicidal activity against Fusarium sporotrichioides IMT 496 after 72 hrs; assay type: functional; conditions: IMT 496, 72 h

Row | Structure (SMILES) | MIC (Staphylococcus aureus [1]) [µM] | MIC (Bacillus cereus [2]) [µM] | MIC (Micrococcus flavus [3]) [µM] | MIC (Listeria monocytogenes [4]) [µM] | MIC (Aspergillus ochraceus [17]) [µM] | MIC (Aspergillus versicolor [18]) [µM] | MIC (Aspergillus niger [19]) [µM] | MIC (Aspergillus fumigatus [20]) [µM] | MIC (Trichoderma viride [21]) [µM] | MIC (Penicillium ochrochloron [22]) [µM] | MIC (Talaromyces funiculosus [23]) [µM] | MIC (10'-2 umol/ml) [24] | MFC (Aspergillus ochraceus [25]) [µM] | MFC (Aspergillus versicolor [26]) [µM] | MFC (Aspergillus niger [27]) [µM] | MFC (Aspergillus fumigatus [28]) [µM] | MFC (Trichoderma viride [29]) [µM] | MFC (Penicillium ochrochloron [30]) [µM] | MFC (Talaromyces funiculosus [31]) [µM] | MFC [32] [µM] | further results
1 | CC1(C)S[C@@H]2[C@H](NC(=O)[C@H](N)c3ccccc3)C(=O)N2[C@H]1C(=O)O [AMPICILLIN] | 248 (≈ 86.6 µg/mL) | 248 (≈ 86.6 µg/mL) | 248 (≈ 86.6 µg/mL) | 248 (≈ 86.6 µg/mL) | – | – | – | – | – | – | – | – | – | – | – | – | – | – | – | – | MIC (Pseudomonas aeruginosa [5]): 248 µM (≈ 86.6 µg/mL); MIC (Salmonella typhimurium [6]): 248 µM (≈ 86.6 µg/mL); MIC (Escherichia coli [7]): 248 µM (≈ 86.6 µg/mL); MIC (Enterococcus faecalis [8]): 248 µM (≈ 86.6 µg/mL); MBC (Staphylococcus aureus [9]): 372 µM (≈ 130 µg/mL); MBC (Bacillus cereus [10]): 372 µM (≈ 130 µg/mL); MBC (Micrococcus flavus [11]): 372 µM (≈ 130 µg/mL); MBC (Listeria monocytogenes [12]): 372 µM (≈ 130 µg/mL); MBC (Pseudomonas aeruginosa [13]): 372 µM (≈ 130 µg/mL); MBC (Salmonella typhimurium [14]): 372 µM (≈ 130 µg/mL); MBC (Escherichia coli [15]): 372 µM (≈ 130 µg/mL); MBC (Enterococcus faecalis [16]): 372 µM (≈ 130 µg/mL)
2 | c1ccc(-c2ccc(C(c3ccccc3)n3ccnc3)cc2)cc1 (centres undefined) [BIFONAZOLE] | – | – | – | – | 403 (≈ 125 µg/mL) | 25.1 (≈ 7.79 µg/mL) | 50.3 (≈ 15.6 µg/mL) | 3.2 (≈ 0.993 µg/mL) | 806 (≈ 250 µg/mL) | 403 (≈ 125 µg/mL) | 1610 (≈ 500 µg/mL) | 8.06 | 806 (≈ 250 µg/mL) | 1610 (≈ 500 µg/mL) | 201 (≈ 62.5 µg/mL) | 61.2 (≈ 19 µg/mL) | 1610 (≈ 500 µg/mL) | 1610 (≈ 500 µg/mL) | 2420 (≈ 750 µg/mL) | 806 (≈ 250 µg/mL) | –
3 | CC(=O)N1CCN(c2ccc(OCC3COC(Cn4ccnc4)(c4ccc(Cl)cc4Cl)O3)cc2)CC1 (centres undefined) [KETOCONAZOLE] | – | – | – | – | 47 (≈ 25 µg/mL) | 18.8 (≈ 9.99 µg/mL) | 282 (≈ 150 µg/mL) | 47 (≈ 25 µg/mL) | 94.2 (≈ 50.1 µg/mL) | 18.8 (≈ 9.99 µg/mL) | 9.4 (≈ 5 µg/mL) | 9.42 | 94.2 (≈ 50.1 µg/mL) | 47 (≈ 25 µg/mL) | 470 (≈ 250 µg/mL) | 94.2 (≈ 50.1 µg/mL) | 188 (≈ 99.9 µg/mL) | 47 (≈ 25 µg/mL) | 18.8 (≈ 9.99 µg/mL) | 188 (≈ 99.9 µg/mL) | –
4 | CNc1nc(C)c(C(=O)/C=C/c2c(Cl)cccc2Cl)s1 | 306 (≈ 100 µg/mL) | 260 (≈ 85 µg/mL) | 229 (≈ 75 µg/mL) | 306 (≈ 100 µg/mL) | 459 (≈ 150 µg/mL) | 306 (≈ 100 µg/mL) | 306 (≈ 100 µg/mL) | 306 (≈ 100 µg/mL) | 153 (≈ 50 µg/mL) | 153 (≈ 50 µg/mL) | 306 (≈ 100 µg/mL) | 15.3 | 612 (≈ 200 µg/mL) | 459 (≈ 150 µg/mL) | 612 (≈ 200 µg/mL) | 306 (≈ 100 µg/mL) | 306 (≈ 100 µg/mL) | 459 (≈ 150 µg/mL) | 459 (≈ 150 µg/mL) | 459 (≈ 150 µg/mL) | MIC (Pseudomonas aeruginosa [5]): 229 µM (≈ 75 µg/mL); MIC (Salmonella typhimurium [6]): 306 µM (≈ 100 µg/mL); MIC (Escherichia coli [7]): 229 µM (≈ 75 µg/mL); MIC (Enterococcus faecalis [8]): 153 µM (≈ 50 µg/mL); MBC (Staphylococcus aureus [9]): 459 µM (≈ 150 µg/mL); MBC (Bacillus cereus [10]): 306 µM (≈ 100 µg/mL); MBC (Micrococcus flavus [11]): 306 µM (≈ 100 µg/mL); MBC (Listeria monocytogenes [12]): 459 µM (≈ 150 µg/mL); MBC (Pseudomonas aeruginosa [13]): 306 µM (≈ 100 µg/mL); MBC (Salmonella typhimurium [14]): 306 µM (≈ 100 µg/mL); MBC (Escherichia coli [15]): 306 µM (≈ 100 µg/mL); MBC (Enterococcus faecalis [16]): 306 µM (≈ 100 µg/mL)
5 | CNc1nc(C)c(C(=O)/C=C/c2ccc([N+](=O)[O-])cc2)s1 | 330 (≈ 100 µg/mL) | 330 (≈ 100 µg/mL) | 330 (≈ 100 µg/mL) | 330 (≈ 100 µg/mL) | 250 (≈ 75.8 µg/mL) | 330 (≈ 100 µg/mL) | 330 (≈ 100 µg/mL) | 330 (≈ 100 µg/mL) | 165 (≈ 50.1 µg/mL) | 330 (≈ 100 µg/mL) | 330 (≈ 100 µg/mL) | 16.5 | 330 (≈ 100 µg/mL) | 496 (≈ 150 µg/mL) | 825 (≈ 250 µg/mL) | 496 (≈ 150 µg/mL) | 330 (≈ 100 µg/mL) | 496 (≈ 150 µg/mL) | 496 (≈ 150 µg/mL) | 660 (≈ 200 µg/mL) | MIC (Pseudomonas aeruginosa [5]): 330 µM (≈ 100 µg/mL); MIC (Salmonella typhimurium [6]): 248 µM (≈ 75.1 µg/mL); MIC (Escherichia coli [7]): 248 µM (≈ 75.1 µg/mL); MIC (Enterococcus faecalis [8]): 165 µM (≈ 50.1 µg/mL); MBC (Staphylococcus aureus [9]): 495 µM (≈ 150 µg/mL); MBC (Bacillus cereus [10]): 495 µM (≈ 150 µg/mL); MBC (Micrococcus flavus [11]): 495 µM (≈ 150 µg/mL); MBC (Listeria monocytogenes [12]): 495 µM (≈ 150 µg/mL); MBC (Pseudomonas aeruginosa [13]): 495 µM (≈ 150 µg/mL); MBC (Salmonella typhimurium [14]): 330 µM (≈ 100 µg/mL); MBC (Escherichia coli [15]): 330 µM (≈ 100 µg/mL); MBC (Enterococcus faecalis [16]): 330 µM (≈ 100 µg/mL)
6 | CNc1nc(C)c(C(=O)/C=C/c2cccc(Cl)c2)s1 | 342 (≈ 100 µg/mL) | 342 (≈ 100 µg/mL) | 256 (≈ 75.1 µg/mL) | 342 (≈ 100 µg/mL) | 340 (≈ 99.5 µg/mL) | 340 (≈ 99.5 µg/mL) | 340 (≈ 99.5 µg/mL) | 340 (≈ 99.5 µg/mL) | 170 (≈ 49.8 µg/mL) | 340 (≈ 99.5 µg/mL) | 340 (≈ 99.5 µg/mL) | 17 | 513 (≈ 150 µg/mL) | 513 (≈ 150 µg/mL) | 854 (≈ 250 µg/mL) | 513 (≈ 150 µg/mL) | 340 (≈ 99.5 µg/mL) | 513 (≈ 150 µg/mL) | 513 (≈ 150 µg/mL) | 683 (≈ 200 µg/mL) | MIC (Pseudomonas aeruginosa [5]): 342 µM (≈ 100 µg/mL); MIC (Salmonella typhimurium [6]): 290 µM (≈ 85.1 µg/mL); MIC (Escherichia coli [7]): 290 µM (≈ 85.1 µg/mL); MIC (Enterococcus faecalis [8]): 85.4 µM (≈ 25 µg/mL); MBC (Staphylococcus aureus [9]): 513 µM (≈ 150 µg/mL); MBC (Bacillus cereus [10]): 513 µM (≈ 150 µg/mL); MBC (Micrococcus flavus [11]): 342 µM (≈ 100 µg/mL); MBC (Listeria monocytogenes [12]): 513 µM (≈ 150 µg/mL); MBC (Pseudomonas aeruginosa [13]): 513 µM (≈ 150 µg/mL); MBC (Salmonella typhimurium [14]): 342 µM (≈ 100 µg/mL); MBC (Escherichia coli [15]): 342 µM (≈ 100 µg/mL); MBC (Enterococcus faecalis [16]): 342 µM (≈ 100 µg/mL)
